One data set has as its system LC-1F. The conditions noted are these: read-out: IC50 for erlotinib (printed in the Afatinib column, marked &), cancerrxgene.org; cited from earlier work.
A further data set deals with H1975-OR xenografts. Description: NSCLC xenograft tumor growth. The conditions noted are these: 5 mg/kg osimertinib oral daily; 5 mg/kg NGI-1-NP as printed in b391 (20 mg/kg elsewhere in the source); blank NPs 926±253 mm3. In kind it is in vivo, athymic Swiss nu/nu mice. The procedure:
The effects of NGI-1 were evaluated in Six-to-eight-week old female athymic Swiss nu/nu mice bearing bilateral flank xenograft tumors. Five days after inoculation, mice were randomized to receive i.v. NGI-1 NPs (20 mg/kg) or blank NPs three times per week for a total of 8 doses. […] Tumor size was measured three times per week and volume was calculated according to the formula π/6×(length)×(width)^2.

A further data set concerns H1975 and H1975-OR cells. Briefly: MTT proliferation assay. In kind it is cell-based. The conditions noted are these: 1 μM Osimertinib. The procedure: The H1975 and A549 cell lines were purchased from ATCC (Manassas, Va.), the PC9 cell line was a gift from Katie Politi, and the HCC-827 and HCC-827-GR lines were gifts from Jeff Engelman (MGH, Boston Mass.). Cell lines were cultured in RPMI 1640+10% FBS supplemented with penicillin and streptomycin (Gibco, Life Technologies, Grand Island, N.Y., US) in a humidified incubator with 5% CO2, and they were kept in culture no more than 4 months after resuscitation from the original stocks. No additional authentication was performed. Mycoplasma cell culture contamination was routinely checked and ruled out using the MycoAlert Mycoplasma Detection Kit (Lonza, Rockland, Me. USA). To generate a TKI resistant cell lines, either PC9 or H1975 cells were exposed to increasing concentrations of gefitinib or osimertinib, respectively. Gefitinib or Osimertinib concentrations were increased stepwise when cells resumed growth kinetics similar to the untreated parental cells over a dose range from 10 to 500 nM. Resistant cell cultures were obtained ˜8-12 weeks after initiation of drug exposure. To confirm the emergence of a therapeutic resistant, MTT assays were performed after allowing the cells to grow in drug-free conditions for at least 4 days.
Growth rates were determined by CellTiter 96 NonRadioactive Cell Proliferation Assay (Promega; Madison, Wis., USA) according to the manufacturer's directions. Briefly, NSCLC cells (2×103) untreated or treated with 10 μM NGI-1, 100 nM Gefitinib, or 1 μM Osimertinib (Selleck Chemicals), were seeded in triplicate in 96-wells plates and grown in culture medium containing 10% serum. The media was changed with or without new inhibitor every 48 h. Cell numbers were estimated after 0, 3, and 5 days by adding MTT (3-(4,5-dimethylthiazol-2-yl)-2,5-diphenyltetrazolium bromide) reagent to the wells 4 h before taking the spectrophotometric reading (absorbance at 570 nm).
Background: Tetrazolium assays rely on reduction of a dye to a coloured formazan, in cell work by metabolically active cells.

For data set [1] the following is noted: Contessa et al., Clin Cancer Res. 2010; cited from earlier work.
The next data set concerns D54-ERLucT xenografts. Description: Bioluminescent imaging of inhibition of N-linked glycosylation in xenografts. Format: in vivo, mice. The conditions noted are these: 24 hours; tunicamycin 1 mg/kg, positive control. Here is the method:
All experimental procedures were approved in accordance with IACUC and Yale University institutional guidelines for animal care and ethics and guidelines for the welfare and use of animals in cancer research (Workman et al., Br J Cancer, 102:1555-77 (2010)). NGI-1 delivery to glioma xenografts was evaluated using a bioluminescent imaging platform that detects inhibition of NLG (Contessa at al., Clin Cancer Res., 16:3205-14 (2010)). Ten days after subcutaneous injection of 1×10^7 gliomas cells, mice bearing palpable tumors were treated with control or NGI-1 NPs (20 mg/kg), or tunicamycin 1 mg/kg and imaged 5-30 minutes after delivery of i.p. luciferin (150 mg/kg). Signal intensity was quantified for a region of interest (ROI) encompassing each tumor and induction of bioluminscence was calculated by comparing peak bioluminescent activity from pre- and post-treatment imaging at 24 and 48 hours.

Data on three compounds can be found in patent publication US10765638B2, “Particle formulation with polycation complex” (Yale University, priority 2017, dated 2020).

The term IC50 denotes the concentration that inhibits the measured activity by half. Consider `C#Cc1cccc(Nc2ncnc3cc(OCCOC)c(OCCOC)cc23)c1` [erlotinib], for which the IC50 with LC-1F is 390 nM.
Turning to `C=CC(=O)Nc1cc(Nc2nccc(-c3cn(C)c4ccccc34)n2)c(OC)cc1N(C)CCN(C)C` [osimertinib], in the data set on H1975-OR xenografts, the “mean tumor volume at day 78” value is listed as 584±296 mm^3. Moreover, the “sensitivity of proliferation to osimertinib” value with H1975 and H1975-OR cells (H1975-OR cells) is “resistant”; in the data set on H1975 and H1975-OR cells (H1975 cells), “sensitive”.
For the compound tunicamycin, the toxicity result in data set [1] was “significant toxicity both in vitro and in vivo”. The induction of bioluminescence in the data set on D54-ERLucT xenografts came out at 4.2 fold.
